Reference: patent US20140303242A1, “Sparstolonin B Based Pharmaceutical Agent to Treat Pathological Angiogensis” (University of South Carolina, priority 2013, published 2014)

What was measured:
HUVECs [1] = assay: Matrigel tube formation assay (HUVECs); type: cell-based, human; conditions: concentrations between 1 and 100 μM, 4 h, p<0.05
Procedure: (§1) To initially determine if SsnB inhibited pro-angiogenic cell functions, a tube formation assay with Matrigel was performed. Growth factor reduced Matrigel (BD Biosciences, Bedford, Mass.) was added to the wells of a 96 well polystyrene culture plate and incubated at 37° C. for 30 minutes. Cells (HUVECs, HCAECs, or HMVECs at passage 2 to 4) were added to each well to reach a final number of 20,000 cells per well. SsnB was added to the wells at a concentration of 1, 10, or 100 μM. Endothelial cell medium with DMSO (0.1%) was used as a vehicle control. Each group contained 4 replicates. The plates were placed in an incubator for 4 h. During the incubation, the endothelial cells formed elongated structures called cords, also known as tubes. After 4 h, neutral buffered formalin was added to fix the cells. Pictures of three non-overlapping fields were taken from each well. The lengths of single cell endothelial cords were measured with Image-Pro Plus (Media Cybernetics, Silver Spring, Md.), and the sum of tube lengths for each well was determined. The average total length and standard deviation for each group were determined, and the appropriate statistical tests (ANOVA and Newman-Keuls) were completed. The tube formation assay was replicated three times for both HUVECs and HCAECs. The assay was also repeated with cardiac HMVECs.

HMVECs = assay: Matrigel tube formation assay (cardiac HMVECs); type: cell-based, human; conditions: 1, 10, 100 μM, 4 h
Procedure: as §1

HUVECs [2] = assay: Transwell insert cell migration assay (VEGF-induced); type: cell-based, human; conditions: 8 h
Procedure: The cell invasion assay was performed with a Transwell insert system (6.5 mm diameter inserts with 8.0 μm pores in a polycarbonate membrane situated in wells of 24 well polystrene, tissue culture treated plates, Corning Incorporated, Corning, N.Y.). The Transwell inserts were coated with 0.1% gelatin for 30 min and incubated in low serum medium for 1 h. Cultured HUVECs were trypsinized and then resuspended in low serum medium (0.5% fetal bovine serum without endothelial cell mitogen), and added at 50,000 cells per insert. The cells were allowed to adhere to the inserts for 30 min. Next, various concentrations of SsnB (0.0001, 0.001, 0.01, 0.1, 1, 10, and 100 μM) or vehicle control (0.1% DMSO) were added to the Transwell inserts. After 30 min, the medium in the lower chamber for the experimental groups was replaced with low serum medium containing 10 ng/ml VEGF and thus establishing a chemoattractant gradient between the top insert and lower chamber. For the negative control group, the medium was replaced with low serum medium (0.5% fetal bovine serum). The plates were incubated for 8 h at 37° C. During the incubation, the cells migrated through the pores of the Transwell insert towards the lower chamber. […] Cells were counted from four random fields observed with a 10× objective lens. […]

[3] = test system: Toll-like Receptors 2 and 4 (TLR2 and TLR4); conditions: mouse and human macrophages, prior research; cited from earlier work
HCAECs = assay: Matrigel tube formation assay (HCAECs); type: cell-based, human; conditions: between 1 and 100 μM, 4 h
Procedure: as §1

HUVECs [4] = assay: Real time RT-PCR gene expression (HUVECs); type: cell-based, human; conditions: 24 h
Procedure: After a careful analysis of the microarray data, key genes (CDC6, CCNE2, KITLG, ALDH3A1, CCNB1, CDC2, HMMR, DIAPH3, ANLN, and CDKN3) were chosen for quantitative real-time PCR (qRT-PCR) to verify the gene expression results. HCAECs and HUVECs were exposed to SsnB or vehicle control for 24 h (as previously described in the microarray section). For RT-PCR, RNA was isolated from the cells with the RNeasy Mini kit as described previously. After forward and reverse primer kits (Qiagen, Valencia, Calif.) were selected, the RNA was amplified. The one-step RT-PCR reactions were completed on the BioRad iCycler thermal cycler system in the Instrumentation Resource Facility at the USC School of Medicine. The expression levels were normalized, and RNA levels were quantified.
Microarray data analysis, including data normalization (robust multi-array average), identification of differentially expressed genes (comparative analyses with dChip software), and heat map construction, was carried out to determine how SsnB affects gene expression and affected pathways (n=2 for HUVECs and n=3 for HCAECs). After a careful analysis of the microarray data, several key genes were chosen for qRT-PCR to verify the gene expression results. The genes were chosen based on the following criteria: fold change ≧2, p<0.05, unpaired t-test with a false discovery rate approximating 0%, appearing in both data sets (HUVECs and HCAECs), and gene function relating to cell proliferation and/or angiogenesis. For qRT-PCR, the expression levels were normalized to the housekeeping gene GAPDH, and RNA levels were compared between groups with the ΔΔCt method.

HUVECs [5] = assay: Cytotoxicity on HUVECs; type: cell-based, human; conditions: concentrations up to 100 μM
[6] = SsnB vs vehicle control, normalized to GAPDH

O=c1occ2c3c(ccc(O)c13)Oc1ccc(O)cc1-2 [SsnB, Sparstolonin B]
HUVEC tube formation (HUVECs [1]): dose-dependent inhibition
cardiac HMVEC tube formation (HMVECs): dose-dependent inhibition
VEGF-induced cell migration inhibition, high concentrations (HUVECs [2]; between 0.1 and 100 μM): leveled off
VEGF-induced cell migration (HUVECs [2]; concentrations between 0.0001 and 0.1 μM, p<0.05): dose-dependent inhibition
inflammatory responses of macrophages to ligands for TLR2 and TLR4 [3]: selectively inhibiting
HCAEC tube formation on Matrigel (HCAECs): dose-dependent inhibition
ALDH3A1 expression (qRT-PCR) (HUVECs [4]): 1280 % of controls
KITLG expression (qRT-PCR) (HUVECs [4]): 400 % of controls
ALDH3A1 PCR 2^ΔΔCt value (HUVECs [4]; [6]): 12.8
ANLN PCR 2^ΔΔCt value (HUVECs [4]; [6]): 0.20
CCNB1 PCR 2^ΔΔCt value (HUVECs [4]; [6]): 0.40
CCNE2 PCR 2^ΔΔCt value (HUVECs [4]; [6]): 0.64
CDC2 PCR 2^ΔΔCt value (HUVECs [4]; [6]): 0.14
CDC6 PCR 2^ΔΔCt value (HUVECs [4]; [6]): 0.35
CDKN3 PCR 2^ΔΔCt value (HUVECs [4]; [6]): 0.18
DIAPH3 PCR 2^ΔΔCt value (HUVECs [4]; [6]): 0.19
HMMR PCR 2^ΔΔCt value (HUVECs [4]; [6]): 0.24
KITLG PCR 2^ΔΔCt value (HUVECs [4]; [6]): 4.0
cytotoxic effects (HUVECs [5]): does not exhibit cytotoxic effects
